Reference: US20100197608A1, “USE OF MELANOTROPHIN-POTENTIATING FACTOR AS A THERAPEUTIC AGENT” (priority 2007, published 2010)
Where a SMILES comes first, the peptide text is derived from it.

Key:
HIV-1IIIB = experiment: HIV-1 antiviral assay (CPE reduction) in CEM-SS cells; type: cell-based; conditions: peptide 10 micrograms per ml; 6 days post-infection; MTS
CEM-SS cells = experiment: Cytotoxicity in CEM-SS cells (MTS); conditions: peptide 10 micrograms per ml
MRC-5 cells = conditions: human, 6 days
Pseudomonas aeruginosa = type: cell-based; conditions: 5 micrograms per ml
Streptococcus pneumoniae = type: cell-based; conditions: 5 micrograms per ml
MRSA = conditions: 5 micrograms per ml
in vitro [1] = conditions: human, CEM-SS cells
in vitro [2] = conditions: human, MRC-5 cells
[3] = Cytotoxicity in HepG2-2.2.15 cells (dye uptake); conditions: human

Compound: Cc1cn([C@H]2C[C@H](N=[N+]=[N-])[C@@H](CO)O2)c(=O)[nH]c1=O [AZT]
- % CPE reduction in HIV-1 infected CEM-SS cells (HIV-1IIIB): 99%
- % Cell viability (CEM-SS cells): 97%

Compound: Nc1nc(O)c2ncn(COC(CO)CO)c2n1 [Ganciclovir]
- % Cell viability (MRC-5 cells): 100%

Compound: CC(C)(C)NC(=O)[C@@H]1CN(Cc2cccnc2)CCN1C[C@@H](O)C[C@@H](Cc1ccccc1)C(=O)N[C@H]1c2ccccc2C[C@H]1O [Indinavir, indinavir]
- % CPE reduction in HIV-1 infected CEM-SS cells (HIV-1IIIB): 100%

Compound: NCCCC[C@H](NC(=O)[C@@H](N)CCCCN)C(=O)NCC(=O)N[C@@H](CCC(=O)O)C(=O)O [MPF, Lys-Lys-Gly-Glu-OH] (H-KKGE-OH)
- % inhibition (Pseudomonas aeruginosa): 0.0%
- % inhibition (Streptococcus pneumoniae): 0.0%
- % inhibition (MRSA): 0.0%
- viability at 10 micrograms per ml (in vitro [1]): 100%
- viability at 144 h (in vitro [2]): 96.1%
- viability at 144 h, 10 micrograms per ml [3]: 100%
